From ChEMBL document CHEMBL1122122, “Drug latentiation by gamma-glutamyl transpeptidase” (J Med Chem, 1982)
Residues, ends and D or L forms follow the SMILES beside them.

Experiment: Compound evaluated for drug latentiation activity by determining relative rate of cleavage by gamma-glutamyl transpeptidase
Type: functional

SMILES	Relative activity
CCC(NC(=O)CCC(N)C(=O)O)C(=O)O (stereo not given)	95
NC(CCC(=O)NCCCC(=O)O)C(=O)O (stereo not given)	9
CSC[C@H](NC(=O)CC[C@H](N)C(=O)O)C(=O)NCC(=O)O	100
NC(CCC(=O)N1CSCC1C(=O)O)C(=O)O (stereo not given)	5
NC(CCC(=O)Nc1ccc(O)cc1)C(=O)O (stereo not given)	98
NC(CCC(=O)Nc1ccccc1O)C(=O)O (stereo not given)	95
NC(CCC(=O)Nc1cccc(O)c1)C(=O)O (stereo not given)	96
NC(=O)CC[C@H](N)C(=O)NCC(=O)O (H-Gln-Gly-OH)	70
NC(CCC(=O)NC1(C(=O)O)CCCC1)C(=O)O (stereo not given)	19
NC(CCC(=O)N1CCCC1C(=O)O)C(=O)O (stereo not given)	4
